Measured values from paper PMC4598023 (PLoS ONE, 2015).
Bridges are numbered along the chain shown (N, C = ends). Where no end group is shown, it is not given here.

How the values were obtained:
[1] = Pharmacokinetics after subcutaneous administration in mice (serum amylin by ELISA); format: in vivo
Protocol: Swiss male mice (8 weeks old; n = 4 per group) were administrated of free or monoPEGylated human amylin (both at 400 μg peptide / kg body weight) by subcutaneous route. At the indicated time interval, blood was collected with glass capillary tubes from retro-orbital access and the serum was separated. The concentration of amylin in the plasma was evaluated by ELISA (Merck Millipore, cat # EZHA-52K) by following the manufacturer protocol. The sensitivity of the ELISA assay kit for the monoPEGylated human amylin product was similar to the non-conjugated human amylin as inferred from control analytical curves. In case needed, the mice plasma samples were diluted accordingly in order to achieve the desired concentration range of the ELISA kit. Glucagon was evaluated from the same serum samples, by using an ELISA kit (Merck Millipore, Cat # EZGLU-30K) according to instructions of the manufacturer.
Continuous lines are best fitting of single-exponential decay function to data. b) Modulation of glucagon. […] The raw data can be found in S2 File.

[2] = Amylin aggregation by ThT fluorescence, up to 7 days in PBS pH 7.4; format: physicochemical; details: PBS pH 7.4, 25°C, followed up to 7 days
Protocol: In this case, at the indicated time 160 μL sample were mixed with 40 μL ThT 100 μM. In both cases the thioflavin T fluorescence was measured by setting excitation at 450 nm and emission at 482 nm. […] The aggregation curves were fitted using a 4 parameter logistic function and the t1/2, elongation rate and lag time were estimated as described elsewhere.
(§1) Scale bar = 200 nm. The raw data can be found in S2 File.

MCF–7 cells = assay: cAMP production in MCF–7 cells following stimulation with amylin and PEGylated amylin; format: cell-based, human; details: for cAMP: 37°C
Protocol: The assay was conducted by the CRO Eurofins | Cerep Panlabs, using the cAMP HiRange assay kit (Cisbio, 62AM6PE). According to the company, the assay was performed in 96 well half area plates, in a total reaction volume of 20 μl/well, with a total of 3.000 cells in suspension (after optimization for optimal seeding density and format: adherent or suspension), freshly thawed. Cells were incubated at 37°C in a humidified atmosphere with 5% (v/v) CO2. […] Following the incubation, cells were lysed and the cAMP quantified by using the cAMP HiRange assay kit (Cisbio, 62AM6PE) according to the manufacturer instructions. […] After 60 minutes incubation at room temperature, fluorescence was measured (excitation at 337 nm, emission at 620 vs. 665 nm), and the cAMP concentration was determined by dividing the signal at 665 nm by that at 620 nm and comparing with the cAMP calibration curve. Buffer was used as negative control and the results were corrected accordingly. Results are expressed as mean ± standard error (n = 2) of the resulting cAMP concentrations in nM. EC50 values for the agonist-induced cAMP production was calculated by adjusting data with a logist 4 parameter function (with SigmaPlot, Jandel Sci).
MCF–7 cells endogenously express human amylin receptor CTR1 and CTR2 [72, 73]. Stimulation of the receptor with amylin results in the production of cAMP (Fig 5).

[3] = molecular target: T1, Fluorescein-Labelled Murine Amylin (Mus musculus, UniProt P12968); assay: Isothermal binding assay, fluorescence anisotropy (amylin self-assembly); details: PBS pH 7.4, 25°C; for Anisotropy: 50 nM labelled murine amylin, mean of five measurements
T1 sequence (P12968 38-74 limits assumed): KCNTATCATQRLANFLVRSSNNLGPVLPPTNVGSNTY
Protocol: The proteins (CTR, RAMP and murine amylin) were labeled with fluorescein isothiocyanate (FITC; Sigma-Aldrich; 0.2 mM final concentration, from stock in DMSO at 5 mM freshly prepared) in 20 mM Na2HPO4, 300 mM NaCl, pH 7.0, for 60 min at 25°C protected from light. The reaction was quenched by adding an excess of Tris-HCl. The free fluorescein was removed by chromatography with a Sephadex G25 desalting column (GE Healthcare, Brazil). The labeling efficiency, final yield and protein quantification were calculated as described elsewhere. The labeling efficiency was below 1 mol FITC:1 mol protein for all labeling procedures. Labeled proteins were stored until use protected from light at -20°C for no longer than 3 months.
The fluorescence measurements were conducted in a Spectramax M5 (Molecular Devices) microplate reader, with excitation and emission set at 480 nm and 520 nm respectively, with cut-off filter 515 nm. The results represent the mean and the standard error of the mean (SEM) of five measurements. Binding data analysis was performed with SigmaPlot 12.5 (Systat Software, Inc., CA, USA).
Fig 4 Amylin self-assembly and interaction with co-receptors. […] Assays were conducted in PBS, pH 7.4, 25°C, in the presence of 50 nM FITC-labelled proteins (amylin, CTR–1 or RAMP–3). Ex 480 nm, Em 520 nm, filter 515 nm. The raw data can be found in S2 File.

[4] = Morphologic analysis of aggregation products by transmission electron microscopy (TEM); format: physicochemical; details: negative stain 2% uranyl acetate; products of the aggregation kinetics
Text: Samples from aggregation kinetic assay were applied to 300 mesh, Formvar-carbon-coated Cu grids (Electron Microscopy Science, USA), followed by negative stain with 2% uranyl acetate, pH 4.8, for 30–60 s.
as §1

[5] = Amylin aggregation kinetics by ThT fluorescence, up to 12 h at varying pH; format: physicochemical; details: 50 μM peptide, 10 mM buffer, 20 μM ThT, 2% DMSO, 25°C
[6] = (unit not given), Swiss male mice, s.c., 400 μg peptide/kg

Q: Which “Half Life (One phase decay, best-fit value)” value [1, 6] does the source give for “PEGylated human amylin: human amylin monoconjugated at the N-terminal Lys1 region with 5 kDa methoxyl polyethylene glycol succinimidyl carbonate (mPEGsc5k) (KCNTATCATQRLANFLVHSSNNFGAILSSTNVGSNTY-NH2; disulfide 2-7; also: one mPEG 5 kDa (mPEGsc5k) on a Lys1 amino group)” here?
A: Its value is 2.988.

Q: And the “Tau (One phase decay, best-fit value)” value [1, 6]?
A: The value was 4.311.

Q: And the half-life in vivo ([1]; male, Swiss, mouse, in vivo, sc)?
A: Its half-life in vivo is 2.98 h.

Q: And the “changes in ThT fluorescence up to 7 days” value [2]?
A: Its value is “only minor changes in ThT fluorescence”.

Q: And the cAMP (MCF–7 cells; 1.00E-05 Molar, replicate 1, 30 min)?
A: Its cAMP is 53.95 nM.

Q: What about the cAMP (MCF–7 cells; 1.00E-05 Molar, replicate 2, 30 min) of the same substance?
A: Its cAMP is 47.73 nM.

Q: What about the cAMP (MCF–7 cells; 1.00E-06 Molar, replicate 1, 30 min) of the same substance?
A: Its cAMP is 47.85 nM.

Q: What about the cAMP (MCF–7 cells; 1.00E-06 Molar, replicate 2, 30 min) of the same substance?
A: The cAMP was 54.26 nM.

Q: And the cAMP (MCF–7 cells; 1.00E-07 Molar, replicate 1, 30 min)?
A: Its cAMP is 38.3 nM.

Q: And the cAMP (MCF–7 cells; 1.00E-07 Molar, replicate 2, 30 min)?
A: The cAMP was 36.06 nM.

Q: And the cAMP (MCF–7 cells; 1.00E-08 Molar, replicate 1, 30 min)?
A: The cAMP was 17.13 nM.

Q: And the cAMP (MCF–7 cells; 1.00E-08 Molar, replicate 2, 30 min)?
A: The cAMP was 22.08 nM.

Q: What about the cAMP (MCF–7 cells; 1.00E-09 Molar, replicate 1, 30 min) of the same substance?
A: Its cAMP is 5.54 nM.

Q: And the cAMP (MCF–7 cells; 1.00E-09 Molar, replicate 2, 30 min)?
A: Its cAMP is 6.29 nM.

Q: What about the cAMP (MCF–7 cells; 1.00E-10 Molar, replicate 1, 30 min) of the same substance?
A: The cAMP was 3.86 nM.

Q: And the cAMP (MCF–7 cells; 1.00E-10 Molar, replicate 2, 30 min)?
A: The cAMP was 4.59 nM.

Q: And the cAMP (MCF–7 cells; 1.00E-11 Molar, replicate 1, 30 min)?
A: Its cAMP is 4.14 nM.

Q: And the cAMP (MCF–7 cells; 1.00E-11 Molar, replicate 2, 30 min)?
A: Its cAMP is 3.71 nM.

Q: And the cAMP (MCF–7 cells; 1.00E-12 Molar, replicate 1, 30 min)?
A: Its cAMP is 4.83 nM.

Q: What about the cAMP (MCF–7 cells; 1.00E-12 Molar, replicate 2, 30 min) of the same substance?
A: Its cAMP is 5.61 nM.

Q: And the EC50 (MCF–7 cells; 30 min 37°C, HBSS/HEPES pH 7.4, 500 μM IBMX, cAMP HiRange kit, 4 parameter logistic fit, n = 2, done by CRO)?
A: Its EC50 is 30.8 ± 6.7 nM.

Q: What about the “self-assembly with amylin (in words)” value ([3]; fluorescence anisotropy, 50 nM FITC-labelled protein) of the same substance?
A: The value was “PEGylation did not abolish the assembly”.

Q: What about the Anisotropy ([3]; ligand 0.0492 µM) of the same substance?
A: Its Anisotropy is 0.0707.

Q: What about the Anisotropy ([3]; ligand 0.1229 µM) of the same substance?
A: Its Anisotropy is 0.0637.

Q: What about the Anisotropy ([3]; ligand 0.3072 µM) of the same substance?
A: Its Anisotropy is 0.0575.

Q: And the Anisotropy ([3]; ligand 0.768 µM)?
A: The Anisotropy was 0.0698.

Q: And the Anisotropy ([3]; ligand 1.92 µM)?
A: The Anisotropy was 0.0836.

Q: What about the Anisotropy ([3]; ligand 4.8 µM) of the same substance?
A: Its Anisotropy is 0.232.

Q: And the Anisotropy ([3]; ligand 12 µM)?
A: The Anisotropy was 0.2936.

Q: And the Anisotropy ([3]; ligand 30 µM)?
A: Its Anisotropy is 0.27.

Q: And the “fibrils by TEM after aggregation assay” value [4]?
A: Its value is “no fibrils were observed”.

Q: And the “changes in ThT fluorescence in the 12 h time window” value [5]?
A: Its value is “did not observe changes in fluorescence”.
